The melting point is the temperature, or range, at which the solid turns liquid. On to `CCCCc1ncc(/C=C(\Cc2cc3c(cc2OC)OCO3)C(=O)O)n1-c1ccc(OC)cc1OCc1nnnn1CC` [Example 23, (E)-3-[2-Butyl-1-[2-(1-ethyl-1H-tetrazol-5-yl)methoxy-4-methoxyphenyl]-1H-imidazol-5-yl]-2-[(2-methoxy-4,5-methylenedioxyphenyl)methyl]-2-propenoic Acid], for which the melting point is 185 to 190 °C.
As for `CCCCc1ncc(/C=C(\Cc2cc3c(cc2OC)OCO3)C(=O)O)n1-c1ccc(OC)cc1OCc1nnn(CCC)n1` [Example 24, (E)-3-[2-Butyl-1-[2-(2-propyl-2H-tetrazol-5-yl)methoxy-4-methoxyphenyl]-1H-imidazol-5-yl]-2-[(2-methoxy-4,5-methylenedioxyphenyl)methyl]-2-propenoic Acid], the melting point fell in the range of 110 to 118 °C.

Source of the values: US6620826B2, “Endothelin receptor antagonists” (SmithKline Beecham Corporation, priority 1994, dated 2003).
